Results: PMC7935272 (PLoS Pathogens, 2021)
“And” between values parts separate entries of the source, which are not always exact repeats. Identical values can stand only once. Like-named read-outs stand apart in the source and are kept apart here.

Columns and labels:
MeV L1708 = MeV L1708 (Measles virus, UniProt Q9WMB3); assay: Biolayer interferometry, MeV L1708 WT; type: binding; details: for S5 B BLI sensorgram response / S5 C BLI sensorgram response: MeV L1708 WT; for steady-state BLI sensor response: S7 B
[1] = system: canine distemper virus (CDV); details: oral treatment initiated at first day of viremia; cited from earlier work
MeV L full length = MeV L full length (Measles virus, UniProt Q9WMB3); assay: Biolayer interferometry, full-length MeV P-L; type: binding; details: for S5 A BLI sensorgram response / S5 D BLI response versus compound conc.: MeV L full length; for steady-state BLI sensor response: S7 A
MeV P-L complexes = MeV P-L complexes (Measles virus, UniProt Q9WMB3); assay: In vitro RdRP assay on 25-nt RSV promoter template (de novo initiation and back-priming); details: 25-mer RSV promoter template
MeV L = biological target: T1, MeV L (Measles virus, UniProt P12576); assay: MeV minigenome dose-response assay, L WT; type: cell-based; details: 40 h, ERDRP-0519 0.005 µM; L WT; Figure 1D; read-out: minigenome activity, individual repeat
T1 construct: expressed in transfected cells; host or cells: BSR-T7/5

[2] = system: MeV L-P complexes L H589Y; type: biochemical; details: de novo initiation, L H589Y vs WT
MeV [3] = details: cited from earlier work
MeV [4] = assay: Cell-based anti-MeV assays of earlier work
Vero-hSLAM cells = assay: in vitro; type: cell-based, African green monkey
Experimental: (§1) To determine cytotoxic concentrations Vero-hSLAM cells were plated in 96 well plates (1.1 × 10^4 per well) and incubated with three-fold serial dilutions of compound. After incubation of uninfected cells for 72 hours, PrestoBlue substrate (Invitrogen) was added to quantify cell metabolic activity as described. Signal was measured using a BioTek H1 synergy multimode microplate reader. Where applicable, cytotoxic concentrations (CC50) were calculated based on four-parameter variable slope regression modeling.

in vitro = type: cell-based, African green monkey; details: African green monkey; Vero-hSLAM, 72 hours
Experimental: as §1

## Cn1nc(C(F)(F)F)cc1C(=O)Nc1ccc(S(=O)(=O)N2CCCC[C@H]2CCN2CCOCC2)cc1 [ERDRP-0519, S(=O)(=O)(N1[C@H](CCN2CCOCC2)CCCC1)c1ccc(NC(=O)c2n(C)nc(C(F)(F)F)c2)cc1]
MeV L1708; 10 µM, time 0.6 s
  S5 B BLI sensorgram response: -0.006943
  S5 C BLI sensorgram response: -0.0003228
MeV L1708; 50 µM, time 0 s
  S5 B BLI sensorgram response: -0.01268
  S5 C BLI sensorgram response: 0.001755
MeV L1708; 50 µM, time 0.2 s
  S5 B BLI sensorgram response: -0.01168
  S5 C BLI sensorgram response: 0.001652
MeV L1708; 50 µM, time 0.4 s
  S5 B BLI sensorgram response: -0.01101
  S5 C BLI sensorgram response: 0.001542
MeV L1708; 50 µM, time 0.6 s
  S5 B BLI sensorgram response: -0.01006
  S5 C BLI sensorgram response: 0.001922
MeV L1708; 0.003 uM
  steady-state BLI sensor response: 0.007597
MeV L1708; 0.027 uM
  steady-state BLI sensor response: 0.01138
MeV L1708; 0.08 uM
  steady-state BLI sensor response: 0.01081
MeV L1708; 0.74 uM
  steady-state BLI sensor response: 0.01443
MeV L1708; 2.22 uM
  steady-state BLI sensor response: 0.01474
MeV L1708; 6.67 uM
  steady-state BLI sensor response: 0.01921
[1]
  survival: all treated animals survived
MeV L full length; 0.003 µM, time 0 s
  S5 A BLI sensorgram response: -0.0003139
MeV L full length; 0.003 µM, time 0.2 s
  S5 A BLI sensorgram response: -0.001098
MeV L full length; 0.003 µM, time 0.4 s
  S5 A BLI sensorgram response: -0.001645
MeV L full length; 0.003 µM, time 0.6 s
  S5 A BLI sensorgram response: -0.002393
MeV L full length; 0.027 µM, time 0 s
  S5 A BLI sensorgram response: 0.0009777
MeV L full length; 0.027 µM, time 0.2 s
  S5 A BLI sensorgram response: 0.001373
MeV L full length; 0.027 µM, time 0.4 s
  S5 A BLI sensorgram response: 0.001785
MeV L full length; 0.027 µM, time 0.6 s
  S5 A BLI sensorgram response: 0.001728
MeV L full length; 0.08 µM, time 0 s
  S5 A BLI sensorgram response: 0.003123
MeV L full length; 0.08 µM, time 0.2 s
  S5 A BLI sensorgram response: 0.003018
MeV L full length; 0.08 µM, time 0.4 s
  S5 A BLI sensorgram response: 0.00257
MeV L full length; 0.08 µM, time 0.6 s
  S5 A BLI sensorgram response: 0.002431
MeV L full length; 0.74 µM, time 0 s
  S5 A BLI sensorgram response: 0.002177
MeV L full length; 0.74 µM, time 0.2 s
  S5 A BLI sensorgram response: 0.002548
MeV L full length; 0.74 µM, time 0.4 s
  S5 A BLI sensorgram response: 0.002706
MeV L full length; 0.74 µM, time 0.6 s
  S5 A BLI sensorgram response: 0.002805
MeV L full length; 2.22 µM, time 0 s
  S5 A BLI sensorgram response: 0.01086
MeV L full length; 2.22 µM, time 0.2 s
  S5 A BLI sensorgram response: 0.01025
MeV L full length; 2.22 µM, time 0.4 s
  S5 A BLI sensorgram response: 0.009623
MeV L full length; 2.22 µM, time 0.6 s
  S5 A BLI sensorgram response: 0.009062
MeV L full length; compound conc. 0.003 uM
  S5 D BLI response versus compound conc.: 0.005655
MeV L full length; compound conc. 0.027 uM
  S5 D BLI response versus compound conc.: 0.009916
MeV L full length; compound conc. 0.08 uM
  S5 D BLI response versus compound conc.: 0.008265
MeV L full length; compound conc. 0.74 uM
  S5 D BLI response versus compound conc.: 0.01334
MeV L full length; 0.003 uM
  steady-state BLI sensor response: 0.006846
MeV L full length; 0.027 uM
  steady-state BLI sensor response: 0.008208
MeV L full length; 0.08 uM
  steady-state BLI sensor response: 0.009438
MeV L full length; 0.74 uM
  steady-state BLI sensor response: 0.01375
MeV L full length; 6.67 uM
  steady-state BLI sensor response: 0.01276
MeV L full length; 20 uM
  steady-state BLI sensor response: 0.01504
MeV P-L complexes
  3'-elongation after backpriming: equivalently dose-dependently blocked
MeV L
  remaining activity at 0.005 µM: 97%
[2]
  increase in IC50 value: 24 fold
MeV [3]; Figure 7A source data
  IC50: 59 nM
MeV [3]; experimental activity, read-out: EC50
  EC50: 59 nM
MeV [3]; read-out: EC50 in cell-based anti-MeV assays
  EC50: 70 to 230 nM
MeV [4]; Figure 7A source data
  IC50: 60 nM
MeV [4]; −log10(EC50) of literature EC50
  IC50: 60.1 nM
Vero-hSLAM cells; cpd concentration 0.045725
  Cytotoxicity, normalized metabolic activity (Figure 5B): 92.6189 and 91.5198 and 89.1889
Vero-hSLAM cells; cpd concentration 0.137174
  Cytotoxicity, normalized metabolic activity (Figure 5B): 93.2443 and 94.6845 and 97.0722
Vero-hSLAM cells; cpd concentration 0.411523
  Cytotoxicity, normalized metabolic activity (Figure 5B): 98.6261 and 97.1101 and 101.469
Vero-hSLAM cells; cpd concentration 1.23457
  Cytotoxicity, normalized metabolic activity (Figure 5B): 100.919 and 98.2092 and 94.5139
Vero-hSLAM cells; cpd concentration 3.7037
  Cytotoxicity, normalized metabolic activity (Figure 5B): 98.683 and 65.7665 and 99.5736
Vero-hSLAM cells; cpd concentration 11.1111
  Cytotoxicity, normalized metabolic activity (Figure 5B): 96.5984 and 96.9017 and 98.6451
Vero-hSLAM cells; cpd concentration 33.3333
  Cytotoxicity, normalized metabolic activity (Figure 5B): 105.751 and 104.652 and 106.244
Vero-hSLAM cells; cpd concentration 100
  Cytotoxicity, normalized metabolic activity (Figure 5B): 82.5753 and 96.0868 and 96.0678
In vitro
  CC50: > 100000 nM
